Source: patent US7759510B2, “Platinum complexes and methods of use” (University of South Florida, priority 2003, dated 2010)
Read-outs that look alike come from different tables or passages of the source.

System: A549 cells
Test: MTT assay, percent survival of A549 cells
Assay type: cell-based
Experimental: 1. Prepare a suspension of A549 cells at 2×10^5 cells per mL in supplemented DMEM/F12 growth medium.
2. Plate 2×10^4 cells per well in a 96 well cell culture plate by adding 100 μL of stock suspension to each well.
3. For each platinum compound (already in solution), prepare a readily usable stock solution in DMEM/F12 medium.
4. For each compound generate triplicate trials of 0, 10, 20, 30, 40, 50, 60, and 70 μM concentration. This is achieved in situ by adding appropriate volumes of stock solution to each well along with the volume of untreated medium necessary to generate the desired concentration in a final volume of 200 μL.
5. Gently agitate plates to mix contents. Incubate at 37° C., 7% CO2 for 45 hours.
6. Add 20 μL of 5 mg/mL MTT solution (in PBS) to each well.
7. Gently agitate plates to mix contents and incubate an additional 3 hours to allow product development.
8. Remove plates from incubator and agitate to cause settling of formazan product.
9. Aspirate out liquid contents of each well using needle and syringe and discard.
10. Add 200 μL DMSO to each well to dissolve formazan product.
11. Agitate plates until all of the formazan product is in solution and no purple crystals remain on the bottom surface of the wells.
12. Read the absorbance of each well at […] using Varian software for Cary 50 UV-vis Spectrophotometer with fiber optic probe accessory.
(§1) MTT assays are used for the quantitative determination of cellular proliferation and activation and for the quantitation of in vitro tumor cell sensitivity to anti-cancer compounds. The assay is based on the cleavage of the yellow tetrazolium salt MTT into purple colored formazan by metabolically active cells. Solubilized formazan product can be photometrically quantitated using an ELISA plate reader. A decrease in the number of living cells results in a decrease in total metabolic activity which leads to a decrease in color formation. Platinum complexes of the present invention were tested in MTT assays using A549 cells to determine anti-cancer cell activity. […] FIGS. 1, 2, and 4 show percent survival versus platinum complex concentration in graphical form.
as §1, with “FIGS. 8, 9,” for “FIGS. 1, 2,”, “and 11” for “and 4”

NC(=O)c1ccc(N)nc1 [6-Aminonicotinamide]
IC50 (Homo sapiens, A549, read-out: Calculated IC 50 (uM concentration)): 53.1 µM | Average Absorbance (Table 6, A549, 10 μM): 2.3742 | Percent Survival (Table 6, A549, 10 μM): 100.5548% | Average Absorbance (Table 6, A549, 20 μM): 2.4321 | Percent Survival (Table 6, A549, 20 μM): 103.0071% | Average Absorbance (Table 6, A549, 30 μM): 2.2814 | Percent Survival (Table 6, A549, 30 μM): 96.6245% | Average Absorbance (Table 6, A549, 40 μM): 1.7213 | Percent Survival (Table 6, A549, 40 μM): 72.9025% | Average Absorbance (Table 6, A549, 50 μM): 0.8618 | Percent Survival (Table 6, A549, 50 μM): 36.4999% | Average Absorbance (Table 6, A549, 60 μM): 0.7739 | Percent Survival (Table 6, A549, 60 μM): 32.7771% | Average Absorbance (Table 6, A549, 70 μM): 0.8536 | Percent Survival (Table 6, A549, 70 μM): 36.1526% | Average Absorbance (Table 8, A549, 10 μM): 2.4711 | Percent Survival (Table 8, A549, 10 μM): 101.1544% | Average Absorbance (Table 8, A549, 20 μM): 2.4672 | Percent Survival (Table 8, A549, 20 μM): 100.9947% | Average Absorbance (Table 8, A549, 30 μM): 1.9896 | Percent Survival (Table 8, A549, 30 μM): 81.4442% | Average Absorbance (Table 8, A549, 40 μM): 1.0963 | Percent Survival (Table 8, A549, 40 μM): 44.8770% | Average Absorbance (Table 8, A549, 50 μM): 0.6485 | Percent Survival (Table 8, A549, 50 μM): 26.5463% | Average Absorbance (Table 8, A549, 60 μM): 0.5811 | Percent Survival (Table 8, A549, 60 μM): 23.7873% | Average Absorbance (Table 8, A549, 70 μM): 0.6294 | Percent Survival (Table 8, A549, 70 μM): 25.7645%

CC(C)(C(=O)O)C(O)(C(=O)O)C(C)(C)C(=O)[O][Pt]([NH2])([NH2])([Cl])([Cl])[N+](=O)[O-] (stereo not drawn) [CPA-31]
Average Absorbance (Table 1, A549, 10 μM): 2.4274 | Percent Survival (Table 1, A549, 10 μM): 102.8080% | Average Absorbance (Table 1, A549, 20 μM): 2.3495 | Percent Survival (Table 1, A549, 20 μM): 99.5087% | Average Absorbance (Table 1, A549, 30 μM): 2.3778 | Percent Survival (Table 1, A549, 30 μM): 100.7073% | IC50 (Table 2, A549, extrapolated from incomplete data (10-40 uM; CPA-31 10-30 μM), outside the measured range, read-out: Calculated IC 50 (uM concentration)): 506 µM | Average Absorbance (Table 3, A549, 10 μM): 2.5294 | Percent Survival (Table 3, A549, 10 μM): 103.5409% | Average Absorbance (Table 3, A549, 20 μM): 2.3875 | Percent Survival (Table 3, A549, 20 μM): 97.7322% | Average Absorbance (Table 3, A549, 30 μM): 1.7978 | Percent Survival (Table 3, A549, 30 μM): 73.5929% | Average Absorbance (Table 3, A549, 40 μM): 0.8196 | Percent Survival (Table 3, A549, 40 μM): 33.5503% | Average Absorbance (Table 3, A549, 50 μM): 0.6049 | Percent Survival (Table 3, A549, 50 μM): 24.7616% | Average Absorbance (Table 3, A549, 60 μM): 0.6067 | Percent Survival (Table 3, A549, 60 μM): 24.8352% | Average Absorbance (Table 3, A549, 70 μM): 0.6228 | Percent Survival (Table 3, A549, 70 μM): 25.4943%

N.N.[Cl][Pt][Cl] [Cis-Pt, Cis-diammineoplatinum(II) dichloride, reference compound]
Average Absorbance (Table 1, A549, 10 μM): 2.3196 | Percent Survival (Table 1, A549, 10 μM): 98.2423% | Average Absorbance (Table 1, A549, 20 μM): 2.3228 | Percent Survival (Table 1, A549, 20 μM): 98.3779% | Average Absorbance (Table 1, A549, 30 μM): 2.3526 | Percent Survival (Table 1, A549, 30 μM): 99.6400% | Average Absorbance (Table 1, A549, 40 μM): 2.1315 | Percent Survival (Table 1, A549, 40 μM): 90.2757% | Average Absorbance (Table 1, A549, 50 μM): 1.8447 | Percent Survival (Table 1, A549, 50 μM): 78.1288% | Average Absorbance (Table 1, A549, 60 μM): 1.1039 | Percent Survival (Table 1, A549, 60 μM): 46.7536% | Average Absorbance (Table 1, A549, 70 μM): 0.7118 | Percent Survival (Table 1, A549, 70 μM): 30.1470% | IC50 (Table 2, A549, linear trend from percent survival vs. concentration data of Table 1, read-out: Calculated IC 50 (uM concentration)): 63.3 µM | Average Absorbance (Table 3, A549, 10 μM): 2.4665 | Percent Survival (Table 3, A549, 10 μM): 100.9661% | Average Absorbance (Table 3, A549, 20 μM): 2.4556 | Percent Survival (Table 3, A549, 20 μM): 100.5199% | Average Absorbance (Table 3, A549, 30 μM): 2.2686 | Percent Survival (Table 3, A549, 30 μM): 92.8650% | Average Absorbance (Table 3, A549, 40 μM): 1.7575 | Percent Survival (Table 3, A549, 40 μM): 71.9432% | Average Absorbance (Table 3, A549, 50 μM): 1.2828 | Percent Survival (Table 3, A549, 50 μM): 52.5114% | Average Absorbance (Table 3, A549, 60 μM): 0.7971 | Percent Survival (Table 3, A549, 60 μM): 32.6293% | Average Absorbance (Table 3, A549, 70 μM): 0.6718 | Percent Survival (Table 3, A549, 70 μM): 27.5001% | Average Absorbance (Table 4, A549, 10 μM): 0.5299 | Percent Survival (Table 4, A549, 10 μM): 83.1% | Average Absorbance (Table 4, A549, 20 μM): 0.6575 | Percent Survival (Table 4, A549, 20 μM): 103.1% | Average Absorbance (Table 4, A549, 30 μM): 0.497 | Percent Survival (Table 4, A549, 30 μM): 77.95% | Average Absorbance (Table 4, A549, 40 μM): 0.4763 | Percent Survival (Table 4, A549, 40 μM): 74.69% | Average Absorbance (Table 4, A549, 50 μM): 0.3644 | Percent Survival (Table 4, A549, 50 μM): 57.14% | Average Absorbance (Table 4, A549, 60 μM): 0.2814 | Percent Survival (Table 4, A549, 60 μM): 44.13% | Average Absorbance (Table 4, A549, 70 μM): 0.1854 | Percent Survival (Table 4, A549, 70 μM): 29.07% | Average Absorbance (Table 6, A549, 10 μM): 2.3196 | Percent Survival (Table 6, A549, 10 μM): 98.2423% | Average Absorbance (Table 6, A549, 20 μM): 2.3228 | Percent Survival (Table 6, A549, 20 μM): 98.3779% | Average Absorbance (Table 6, A549, 30 μM): 2.3526 | Percent Survival (Table 6, A549, 30 μM): 99.6400% | Average Absorbance (Table 6, A549, 40 μM): 2.1315 | Percent Survival (Table 6, A549, 40 μM): 90.2757% | Average Absorbance (Table 6, A549, 50 μM): 1.8447 | Percent Survival (Table 6, A549, 50 μM): 78.1288% | Average Absorbance (Table 6, A549, 60 μM): 1.1039 | Percent Survival (Table 6, A549, 60 μM): 46.7536% | Average Absorbance (Table 6, A549, 70 μM): 0.7118 | Percent Survival (Table 6, A549, 70 μM): 30.1470% | Average Absorbance (Table 8, A549, 10 μM): 2.4665 | Percent Survival (Table 8, A549, 10 μM): 100.9661% | Average Absorbance (Table 8, A549, 20 μM): 2.4556 | Percent Survival (Table 8, A549, 20 μM): 100.5199% | Average Absorbance (Table 8, A549, 30 μM): 2.2686 | Percent Survival (Table 8, A549, 30 μM): 92.8650% | Average Absorbance (Table 8, A549, 40 μM): 1.7575 | Percent Survival (Table 8, A549, 40 μM): 71.9432% | Average Absorbance (Table 8, A549, 50 μM): 1.2828 | Percent Survival (Table 8, A549, 50 μM): 52.5114% | Average Absorbance (Table 8, A549, 60 μM): 0.7971 | Percent Survival (Table 8, A549, 60 μM): 32.6293% | Average Absorbance (Table 8, A549, 70 μM): 0.6718 | Percent Survival (Table 8, A549, 70 μM): 27.5001% | Average Absorbance (Table 9, A549, 10 μM): 0.5299 | Percent Survival (Table 9, A549, 10 μM): 83.1% | Average Absorbance (Table 9, A549, 20 μM): 0.6575 | Percent Survival (Table 9, A549, 20 μM): 103.1096% | Average Absorbance (Table 9, A549, 30 μM): 0.497 | Percent Survival (Table 9, A549, 30 μM): 77.95% | Average Absorbance (Table 9, A549, 40 μM): 0.4763 | Percent Survival (Table 9, A549, 40 μM): 74.69% | Average Absorbance (Table 9, A549, 50 μM): 0.3644 | Percent Survival (Table 9, A549, 50 μM): 57.14% | Average Absorbance (Table 9, A549, 60 μM): 0.2814 | Percent Survival (Table 9, A549, 60 μM): 44.13% | Average Absorbance (Table 9, A549, 70 μM): 0.1854 | Percent Survival (Table 9, A549, 70 μM): 29.07%
